According to article PMC9767416, “Discovery of small molecule mechanistic target of rapamycin inhibitors as anti-aging and anti-cancer therapeutics” (Frontiers in Aging Neuroscience, 2022):
Read-outs that look alike come from different tables or passages of the source.

Tests used:
[1] = Dissociation constants by spectrophotometric titration; format: physicochemical; conditions: 20°C; for pKa: ultrapure water
Procedure: The spectrophotometric titration was used for dissociation constants’ determination, utilizing spectrophotometer Agilent Cary-60 (Agilent Technologies, CA, USA), pH meter WTW InoLab_IDS Multi 9430 (WTW, Czech Republic), and pH electrode SenTix® Mic (WTW, Czech Republic). Data were analyzed by GraphPadPrism 8.0 software (GraphPad Software, CA, USA). The analyzed samples were prepared by adding 20 μL of compound stock solution (2 mg/mL) and 20 μL of 0.1 M hydrochloric acid into the cuvette with ultrapure water (total volume 3.5 mL). The samples were titrated by 0.1 M sodium hydroxide at 20°C while acquiring absorption spectra (190–500 nm) at different pH values. Absorbance at the chosen wavelength was plotted as a function of pH. The inflection point in the given plot was used for pKa value determination.

IR-RPE-1 senescent cells = test: Time-lapse microscopy of IR-senescent RPE-1; format: cell-based, human; conditions: 100 μM, 72 h
Procedure: To obtain ionizing radiation (IR)-induced senescent cells, proliferating RPE-1 cells were exposed to a single dose of X-rays (20 Gy) using Pantak HF160 (Gulmay, Surrey, UK) X-ray instrument equipped with Pantak Seifert HF320 generator, MXR-161 X-ray tube (Comet AG, Flamatt, Switzerland), and an aluminum filter using current 1–10 mA. After irradiation, the cells were cultured for an additional 7 days until the development of the senescent phenotype ([Salovska et al., 2022]). To induce docetaxel-induced senescence (DIS), BJ cells were exposed to 5 nM docetaxel for 7 days, as described previously ([Sapega et al., 2018]). To prepare temozolomide (TMZ)-induced senescence, U87 cells were exposed to 100 μM TMZ for 14 days.
For auto-monitoring of cells, Incucyte SX1 Live-Cell Analysis System (Sartorius, Göttingen, Germany), located in an incubator maintained at 37°C under a 5% CO2 atmosphere and 95% humidity, was utilized. The images (1,408 × 1,040 pixels at 1.24 microns/pixel) were acquired using a 10× objective lens in phase contrast, red fluorescence (excitation: 585 ± 20 nm, emission: 635 [625, 705] nm, acquisition time: 100 ms) channels every 60 min during 72 h. The first image was acquired 30 min after adding compounds. The images were processed to measure cell confluence using Incucyte software (version 2022A). […]

C57BL/6 (B6) male mice [2] = test: Blood counts in the tolerability study; format: in vivo
Procedure: Compounds were dissolved in 20 μL DMSO and completed into 200 μL with corn oil.
During the experiments, mice behavior and possible apparent signs of toxicity were monitored daily. The body weights were determined on days 0, 4, and 8. On day 8, blood (25 μL) was withdrawn using a capillary pipette containing anticoagulant (heparin) from the retroorbital sinus into EDTA-containing tubes. Basic hematological parameters were measured using the Mindray BC-5300 Vet. Mice were then killed, autopsied, and abdominal organs (spleen, liver, and kidney) were removed for visual examination and imaging by a digital camera. Single-cell suspensions from the spleens were prepared by homogenization through a cell strainer (70 μm; BD Biosciences, San Jose, CA, USA). Erythrocytes were osmotically lysed using ammonium chloride-potassium lysis buffer, and the cell suspensions were washed three times in the RPMI-1640 medium and used for further analysis by flow cytometry for selected cell populations.

C57BL/6 (B6) male mice [3] = test: Histopathological analysis of spleen, kidney and liver; format: in vivo
Procedure: Spleen, kidney, and liver tissue samples from the control and treated animals were fixed in 4% formaldehyde and embedded into paraffin. The analysis and evaluation were performed at the Czech Centre for Phenogenomics, Institute of Molecular Genetics of the CAS, Vestec, using Leica ASP6025 automatic vacuum tissue processor for tissue processing, Leica EG1150 H + C embedding station for embedding, and Leica RM2255 rotary microtome for sectioning (2 μm sections). Standard haematoxylin and eosin (HE) descriptive histopathological staining was done using Leica ST5020 + CV5030 stainer and coverslipped.

[4] = mice, 5 mg/kg p.o. days 0, 3, 5, blood day 8, AVG
[5] = mice, 25 mg/kg p.o. days 0, 3, 5, blood day 8, AVG
[6] = mice, 50 mg/kg p.o. days 0, 3, 5, blood day 8, AVG
[7] = mice, all three doses (5, 25, 50 mg/kg p.o.)
[8] = mice, 5 mg/kg p.o. days 0, 3, 5, blood day 8, AVG, in 10^9/L (unit assumed)
[9] = mice, 5 mg/kg p.o. days 0, 3, 5, blood day 8, AVG, in fL (unit assumed)
[10] = mice, 5 mg/kg p.o. days 0, 3, 5, blood day 8, AVG, in g/L (unit assumed)
[11] = mice, 25 mg/kg p.o. days 0, 3, 5, blood day 8, AVG, in 10^9/L (unit assumed)
[12] = mice, 25 mg/kg p.o. days 0, 3, 5, blood day 8, AVG, in fL (unit assumed)
[13] = mice, 25 mg/kg p.o. days 0, 3, 5, blood day 8, AVG, in g/L (unit assumed)
[14] = mice, 50 mg/kg p.o. days 0, 3, 5, blood day 8, AVG, in 10^9/L (unit assumed)
[15] = mice, 50 mg/kg p.o. days 0, 3, 5, blood day 8, AVG, in fL (unit assumed)
[16] = mice, 50 mg/kg p.o. days 0, 3, 5, blood day 8, AVG, in g/L (unit assumed)

## Nc1ccc(C(=O)Nc2cccc(-c3c[nH]c4ncccc34)c2)cc1O [Compound 3, N-(3-(1H-pyrrolo[2,3-b]pyridin-3-yl)phenyl)-4-amino-3-hydroxybenzamide]
[1]; read-out: pKa1
  pKa: 3.6 ± 0.29
[1]; read-out: pKa2
  pKa: 7.91 ± 0.15
IR-RPE-1 senescent cells
  kind of effect on senescent cells: rather senomorphic than senolytic effect
C57BL/6 (B6) male mice [2]; [4]
  MPV: 5.67
C57BL/6 (B6) male mice [2]; [5]
  MPV: 5.37
C57BL/6 (B6) male mice [2]; [6]
  MPV: 5.20
C57BL/6 (B6) male mice [2]; mouse, in vivo, po, 5 mg/kg
  Eos: 0.88
  HGB: 131.00
  HOT: 0.44
  MCH: 15.90
  MCHC: 296.33
  MCV: 53.70
  Mon: 0.39 10^9/L
  Neu: 1.65
  PCT: 3.88
  PDW: 15.20
  PLT: 677.33
  RBC: 8.28 10^12/L
  RDW-CV: 0.14
  RDW-SD: 31.27
  WBC: 12.56
  lvm: 9.60
C57BL/6 (B6) male mice [2]; mouse, in vivo, po, 25 mg/kg
  Eos: 0.74
  HGB: 136.00
  HOT: 0.46
  MCH: 15.53
  MCHC: 294.00
  MCV: 52.77
  Mon: 0.52 10^9/L
  Neu: 1.47
  PCT: 1.77
  PDW: 14.93
  PLT: 330.00
  RBC: 8.76 10^12/L
  RDW-CV: 0.15
  RDW-SD: 32.23
  WBC: 11.49
  lvm: 8.71
C57BL/6 (B6) male mice [2]; mouse, in vivo, po, 50 mg/kg
  Eos: 0.43
  HGB: 150.67
  HOT: 0.52
  MCH: 15.10
  MCHC: 289.33
  MCV: 52.07
  Mon: 0.72 10^9/L
  Neu: 0.86
  PCT: 3.92
  PDW: 14.70
  PLT: 751.67
  RBC: 9.99 10^12/L
  RDW-CV: 0.13
  RDW-SD: 29.03
  WBC: 8.25
  lvm: 6.23
C57BL/6 (B6) male mice [3]; mice, 25 mg/kg p.o., HE, 100×
  histopathology, spleen: mild extramedullar hematopoiesis
C57BL/6 (B6) male mice [3]; mice, 25 mg/kg p.o., HE, 200×
  histopathology, kidneys: narrowing of Bowman’s space (arrow), focal tubular atrophy
C57BL/6 (B6) male mice [3]; mice, 50 mg/kg p.o., HE, 200×
  histopathology, kidneys: multifocal mild tubular damage
C57BL/6 (B6) male mice [3]; mice, 50 mg/kg p.o., HE, 400×
  histopathology, liver: rare incipient centrilobular necrosis
C57BL/6 (B6) male mice [3]; mice, 5, 25, 50 mg/kg p.o., dose-dependent
  histopathology, liver: minimal evidence of damage
C57BL/6 (B6) male mice [3]; mice, 5, 25, 50 mg/kg p.o., proportional to dose
  histopathology, kidneys: most pronounced pathological changes
C57BL/6 (B6) male mice [3]; [7]
  histopathology, spleen: varying degrees of extramedullary haematopoiesis

## CC(C)n1nc(-c2cc3cc(O)ccc3[nH]2)c2c(N)ncnc21 [Torkinib, torkinib]
[1]
  pKa1: 3.96 ± 0.02
  pKa2: 10.37 ± 0.18
C57BL/6 (B6) male mice [2]; [4]
  Eos: 0.04
  HOT: 0.49
  MPV: 5.33
  Neu: 0.99
  PCT: 3.59
  PDW: 14.57
  RBC: 9.25 10^12/L
  RDW-CV: 0.14
  lvm: 8.67
C57BL/6 (B6) male mice [2]; [8]
  PLT: 690.67
  WBC: 10.43
C57BL/6 (B6) male mice [2]; [9]
  MCV: 53.73
  RDW-SD: 31.77
C57BL/6 (B6) male mice [2]; [10]
  HGB: 146.00
  MCHC: 296.67
C57BL/6 (B6) male mice [2]; mice, 5 mg/kg p.o. days 0, 3, 5, blood day 8, AVG, in pg (unit assumed)
  MCH: 15.97
C57BL/6 (B6) male mice [2]; mice, 5 mg/kg p.o. days 0, 3, 5, blood day 8, AVG, unit assumed
  Mon: 0.73 10^9/L
C57BL/6 (B6) male mice [2]; [5]
  Eos: 0.08
  HOT: 0.52
  MPV: 5.30
  Neu: 0.79
  PCT: 3.79
  PDW: 14.73
  RBC: 9.96 10^12/L
  RDW-CV: 0.14
  lvm: 6.68
C57BL/6 (B6) male mice [2]; [11]
  PLT: 712.00
  WBC: 8.14
C57BL/6 (B6) male mice [2]; [12]
  MCV: 51.90
  RDW-SD: 29.23
C57BL/6 (B6) male mice [2]; [13]
  HGB: 154.00
  MCHC: 298.00
C57BL/6 (B6) male mice [2]; mice, 25 mg/kg p.o. days 0, 3, 5, blood day 8, AVG, in pg (unit assumed)
  MCH: 15.50
C57BL/6 (B6) male mice [2]; mice, 25 mg/kg p.o. days 0, 3, 5, blood day 8, AVG, unit assumed
  Mon: 0.59 10^9/L
C57BL/6 (B6) male mice [2]; [6]
  Eos: 0.04
  HOT: 0.53
  MPV: 5.43
  Neu: 1.25
  PCT: 4.73
  PDW: 14.67
  RBC: 9.95 10^12/L
  RDW-CV: 0.14
  lvm: 6.32
C57BL/6 (B6) male mice [2]; [14]
  PLT: 873.67
  WBC: 8.70
C57BL/6 (B6) male mice [2]; [15]
  MCV: 53.27
  RDW-SD: 31.07
C57BL/6 (B6) male mice [2]; [16]
  HGB: 153.67
  MCHC: 290.33
C57BL/6 (B6) male mice [2]; mice, 50 mg/kg p.o. days 0, 3, 5, blood day 8, AVG, in pg (unit assumed)
  MCH: 15.50
C57BL/6 (B6) male mice [2]; mice, 50 mg/kg p.o. days 0, 3, 5, blood day 8, AVG, unit assumed
  Mon: 1.09 10^9/L
C57BL/6 (B6) male mice [2]; mice, p.o. 5, 25 and 50 mg/kg, blood day 8
  blood count analysis, overall finding: no abnormal changes
C57BL/6 (B6) male mice [3]; [7]
  histopathology, spleen: minimal to moderate signs of extramedullary haematopoiesis
